# Results taken from article PMC2908543, “Uropathogenic Escherichia coli Modulates Immune Responses and Its Curli Fimbriae Interact with the Antimicrobial Peptide LL-37” (PLoS Pathogens, 2010).
# “Also recorded” adds a separate entry of the source. Where two headings read alike, the source gives them in different places.
# Key:
# monomeric CsgA = molecular target: T1, monomeric CsgA (Escherichia coli, UniProt P28307); assay: Surface plasmon resonance, monomeric CsgA; conditions: monomeric CsgA immobilized (2000 response units), 0.1 µM peptide, 20 µl/min for 3 min, HBS-EP, Biacore 3000; binding constants not determinable
# T1 construct: made in house; host or cells: E. coli LSR12 (C600::csg), co-expressed with CsgG
# T1 sequence (P28307 21-151): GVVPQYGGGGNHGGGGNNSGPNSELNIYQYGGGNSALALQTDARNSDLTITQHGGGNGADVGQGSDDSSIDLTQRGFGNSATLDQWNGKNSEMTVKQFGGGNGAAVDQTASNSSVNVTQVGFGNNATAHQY
# Experimental: Binding analysis of LL-37 to both monomeric and polymeric CsgA was performed with surface plasmon resonance (Biacore 3000 instrument; Biacore AB, Uppsala, Sweden). Both monomeric and polymeric CsgA was immobilized on a CM5 sensor chip (Biacore AB) surface by amine coupling. The chip surface was normalized in 70% glycerol and lanes on the chip were activated with injection of 35 µL 0.05 M N-hydroxysuccinimide (NHS)/0.2 M N-ethyl-N′-[3-dimethylamino) propyl]carbodiimide (EDC). Polymeric or monomeric CsgA (1 µM in 10 mM sodium acetate, pH 4.5) was then immobilized on the chip to 7000 response units and 2000 response units, respectively. After immobilization, the lanes were subjected to 60 µL ethanolamine (1 M, pH 8.5) to deactivate remaining activated carboxylic groups. One lane, activated and deactivated, was used as negative control (without addition of CsgA). Standard Biacore HBS-EP (Biacore AB) was utilized as running buffer, and 0.1 µM LL-37, sLL-37 or VIP were injected at 20 µl/min for 3 min. The surface was regenerated after each cycle with 100 mM HCl.
# wild-type curli = assay: Precipitation of LL-37 with wild-type curli, Western blot of supernatant; format: binding, Escherichia coli; conditions: 0.1 µM LL-37 in PBS with 5 µM wild-type curli, 1 h at 37°C
# Experimental: The cellulose-deficient isogenic mutant of E. coli No. 12 was used to purify wild-type curli, as has been described. Colonies were harvested and suspended in 0.05 M Tris-buffer by using an omnimixer. Bacterial cell debris was discarded by centrifugation at 8000×g for 15 min and curli protein was precipitated by adding 0.1 M MgCl2 and 0.15 M NaCl. The aggregated curli were centrifuged at 16000×g for 15 min, and the pellet was dissolved in 10 mM TRIS, 1 mM EDTA, pH 7.5 with 2% 3-((3-cholamidopropyl)dimethylammonium)-1-propanesulfonate (CHAPS). After incubation for 45 min at 95°C, the solution was centrifuged at 20000×g for 10 min. The pellet containing curli was washed three times with water. Finally, curli were suspended in PBS and used for binding studies with LL-37.
# LL-37 (0.1 µM in PBS) was mixed with 5 µM wild-type curli, or 5 µM recombinant polymerized CsgA. As control, the same concentration of LL-37 without curli or CsgA was utilized. The samples were incubated for 1 h at 37°C with shaking and centrifuged for 30 min at 10000×g. An aliquot of the supernatants was analyzed for the presence of LL-37 with Western blot.
# Sample preparation and SDS-PAGE was carried out as described above and Western blot was performed as previously described. […]
# CsgA polymerization = molecular target: T2, CsgA polymerization (Escherichia coli, UniProt P28307); assay: CsgA polymerization, Thioflavin T assay, Tecan plate reader; format: biochemical; conditions: 20 µM ThT, 37°C
# T2 construct: made in house; host or cells: E. coli LSR12 (C600::csg), co-expressed with CsgG
# T2 sequence (P28307 21-151): as above
# Experimental: (§1) CsgA-His6 and CsgG, a lipoprotein that is required for CsgA secretion, were overexpressed in LSR12 (C600::csg). The purification procedure of recombinant CsgA-His6 was performed as previously described with some modifications. The filtrate was incubated with nickel-nitrilotriacetic acid (Ni-NTA) agarose (Invitrogen) for 1 h at 4°C with shaking, centrifuged at 200×g for 5 min and transferred to a polyprep chromatography column (Bio-Rad, Hercules, CA, USA). To confirm protein identity of CsgA-His6, the isolated protein was prepared and subjected to SDS-PAGE as described below, and thereafter the protein was transferred from the gel to a polyvinylidene fluoride (PVDF) membrane (Invitrogen) at 160 mA for 60 min. The band of 15 kDa, corresponding to the molecular weight of CsgA-His6, was excised from the membrane stained with Coomassie Blue and analysed with N-terminal sequence analysis as has been described. Since it has previously been shown that CsgA-His6 has the same polymerizing properties as wild-type CsgA [59], we refer to CsgA-His6 as CsgA.
# Purified recombinant monomeric CsgA (10 µM) with or without different concentrations of the peptides LL-37, sLL-37 or VIP was mixed with 20 µM of the fiber-specific fluorescent probe ThT (Sigma-Aldrich). Fluorescence was measured with a Tecan infinite M200 reader (Tecan Nordic AB, Täby, Sweden). The excitation and emission wavelength was 430 and 490 nm, respectively. Measurements were conducted at 37°C every 10 min after shaking the sample for five seconds. Background fluorescence of the peptides themselves was subtracted.
# [1] = tested on: E. coli strain No. 12 and isogenic mutants; format: cell-based, Escherichia coli; conditions: for IC50: initially grown in biofilm (LB plates without salt), 10^5 CFU/ml, 0.6 µM to 20 µM peptide in 2-fold dilutions, LB broth without salt, 20 h, Alamar blue 570 nm, two experiments in triplicates, read-out: IC50 (concentration at which bacterial growth was inhibited to 50%)
# Experimental: For further investigation, E. coli isolate No. 12 from a child with pyelonephritis was chosen. This was a typical isolate expressing both curli and cellulose as well as type 1 fimbriae and yielding an approximately median level of biofilm as measured on microtiter plates. One-step knockout of bcsA and csgBA was carried out according to the protocol of Datsenko and Wanner with modifications, [50]. The following mutants were constructed using oligos listed in Table 1; WE1 bcsA::Cm, deficient in cellulose production; WE11 csgBA::Cm, deficient in curli production; and WE16 csgBA bscA::Cm, deficient in both cellulose and curli production. Expression of curli and cellulose in strain No. 12 was confirmed by these knockouts. Production of type 1 fimbriae under the culture conditions used for experiments was confirmed by yeast agglutination (see below).
# The susceptibility of wild-type and mutant E. coli strains to synthetic LL-37 and mCRAMP (Innovagen AB, Lund, Sweden) was determined using a broth microdilution method. Briefly, bacteria were grown overnight at 37°C on LB plates with or without salt, inhibiting or promoting the formation of biofilm, respectively. Then, bacteria were suspended in PBS and diluted in LB broth without salt in a concentration of 10^5 CFU/ml. The bacterial concentration was verified by viable count after serial dilutions in PBS. Bacteria (90 µl suspension) were grown in 96-well plates in the presence of 10 µl aqueous solution of synthetic LL-37 or mCRAMP in final concentrations ranging from 0.6 µM to 20 µM in 2-fold dilutions. After 20 h, bacterial viability was measured colorimetrically by reduction of Alamar blue (BioSource International, Camarillo, CA, USA) for 1 h at 37°C [57]. The IC50 was determined as the peptide concentration that gave 50% reduction of the absorbance at 570 nm relative to bacteria grown without peptide.
# [2] = tested on: recombinant polymerized CsgA; assay: Precipitation of LL-37 with polymerized CsgA, Western blot of supernatant; format: binding, Escherichia coli; conditions: 0.1 µM LL-37 in PBS with 5 µM recombinant polymerized CsgA, 1 h at 37°C
# Experimental: as §1
# LL-37 (0.1 µM in PBS) was mixed with 5 µM wild-type curli, or 5 µM recombinant polymerized CsgA. As control, the same concentration of LL-37 without curli or CsgA was utilized. […] An aliquot of the supernatants was analyzed for the presence of LL-37 with Western blot. […]
structure (smiles),measurement,setting,value
CC[C@H](C)[C@H](NC(=O)[C@H](CCCCN)NC(=O)[C@H](CCC(=O)O)NC(=O)[C@H](CCCCN)NC(=O)[C@H](CO)NC(=O)[C@H](CCCCN)NC(=O)[C@H](CCCNC(=N)N)NC(=O)[C@H](Cc1ccccc1)NC(=O)[C@H](Cc1ccccc1)NC(=O)[C@H](CC(=O)O)NC(=O)CNC(=O)[C@H](CC(C)C)NC(=O)[C@@H](N)CC(C)C)C(=O)NCC(=O)N[C@@H](CCCCN)C(=O)N[C@@H](CCC(=O)O)C(=O)N[C@@H](Cc1ccccc1)C(=O)N[C@@H](CCCCN)C(=O)N[C@@H](CCCNC(=N)N)C(=O)N[C@H](C(=O)N[C@H](C(=O)N[C@@H](CCC(N)=O)C(=O)N[C@@H](CCCNC(=N)N)C(=O)N[C@H](C(=O)N[C@@H](CCCCN)C(=O)N[C@@H](CC(=O)O)C(=O)N[C@@H](Cc1ccccc1)C(=O)N[C@@H](CC(C)C)C(=O)N[C@@H](CCCNC(=N)N)C(=O)N[C@@H](CC(N)=O)C(=O)N[C@@H](CC(C)C)C(=O)N[C@H](C(=O)N1CCC[C@H]1C(=O)N[C@@H](CCCNC(=N)N)C(=O)N[C@H](C(=O)N[C@@H](CCC(=O)O)C(=O)N[C@@H](CO)C(=O)O)[C@@H](C)O)C(C)C)[C@@H](C)CC)C(C)C)[C@@H](C)CC [LL-37],binding / association and dissociation by SPR,monomeric CsgA,higher association with CsgA than the control peptides; also recorded: stronger association and lower dissociation rates
same,LL-37 in supernatants after precipitation,wild-type curli,pronounced decrease of LL-37 in supernatants; also recorded: the levels of LL-37 decreased in the supernatants
same,inhibition of CsgA polymerization (ThT fluorescence),CsgA polymerization; 10 µM CsgA with different concentrations of peptide,inhibited by LL-37 in a dose-dependent manner
same,inhibition of CsgA polymerization (ThT fluorescence),"CsgA polymerization; 10 µM CsgA, molar ratio 1∶1 (CsgA∶LL-37), excitation 430 nm, emission 490 nm",fiber formation was completely inhibited
same,difference in resistance between the strains,"[1]; bacteria pre-grown planktonically, curli expression suppressed (data not shown)",no significant difference in the resistance
same,IC50,[1]; curliated strains,12 µM
same,IC50,[1]; non-curliated strains,6 to 7 µM
same,LL-37 in supernatants after precipitation,[2],pronounced decrease of LL-37 in supernatants; also recorded: the levels of LL-37 decreased in the supernatants
